Results as given in paper PMC10268634 (ACS Omega, 2023).

Columns and labels:
DPPH radical scavenging = conditions: for IC50: read-out: DPPH (IC50 value in μM)
α-amylase = molecular target: T1, α-amylase (Homo sapiens, UniProt P04746); test: biochemical
T1 sequence (P04746 16-511): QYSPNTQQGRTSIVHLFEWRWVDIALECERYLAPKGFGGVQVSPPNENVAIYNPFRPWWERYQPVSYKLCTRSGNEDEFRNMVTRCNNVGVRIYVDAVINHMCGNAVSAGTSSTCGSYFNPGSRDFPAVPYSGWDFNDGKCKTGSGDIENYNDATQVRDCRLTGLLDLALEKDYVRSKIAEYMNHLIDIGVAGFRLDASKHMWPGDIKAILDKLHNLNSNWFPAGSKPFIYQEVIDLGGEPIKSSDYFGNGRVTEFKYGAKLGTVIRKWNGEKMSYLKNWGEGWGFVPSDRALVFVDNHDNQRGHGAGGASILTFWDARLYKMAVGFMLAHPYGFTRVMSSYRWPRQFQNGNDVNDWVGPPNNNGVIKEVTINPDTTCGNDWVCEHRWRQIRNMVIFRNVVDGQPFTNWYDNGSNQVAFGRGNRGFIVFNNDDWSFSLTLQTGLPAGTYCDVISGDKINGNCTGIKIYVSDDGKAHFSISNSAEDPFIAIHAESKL

SMILES | DPPH (IC50 value in μM) (DPPH radical scavenging) | IC50 (DPPH radical scavenging) [µM] | IC50 (α-amylase) [µM]
CC(=O)N1N=C(c2ccccc2)CC1c1ccccc1O (stereo not drawn) [Compound 1, 1-(5-(2-Hydroxyphenyl)-3-phenyl-4,5-dihydro-1H-pyrazol-1-yl)ethanone] | potential antioxidant activity | 84.2 | 188
CC(=O)N1N=C(c2ccccc2)CC1c1ccco1 (stereo not drawn) [Compound 2, 1-(5-(Furan-2-yl)-3-phenyl-4,5-dihydro-1H-pyrazol-1-yl)ethanone] | potential antioxidant activity | 85.1 | 301
CC(=O)N1N=C(c2ccccc2)CC1c1cccc([N+](=O)[O-])c1 (stereo not drawn) [Compound 3, 1-(5-(3-Nitrophenyl)-3-phenyl-4,5-dihydro-1H-pyrazol-1-yl)ethanone] |  | 205 | 604
CC(=O)N1N=C(c2ccccc2)CC1c1ccccn1 (stereo not drawn) [Compound 4, 1-(3-Phenyl-5-(pyridin-2-yl)-4,5-dihydro-1H-pyrazol-1-yl)ethanone] |  | 914 | 663
CC(=O)N1N=C(c2ccccc2)CC1c1ccc(C)cc1 (stereo not drawn) [Compound 5, 1-(3-Phenyl-5-(p-tolyl)-4,5-dihydro-1H-pyrazol-1-yl)ethanone] | potential antioxidant activity | 30 | 35.5
COc1ccc(C2=NN(C(C)=O)C(c3ccco3)C2)cc1 (stereo not drawn) [Compound 6, 1-(5-(Furan-2-yl)-3-(4-methoxyphenyl)-4,5-dihydro-1H-pyrazol-1-yl)ethanone] |  | 554 | 811
CC(=O)N1N=C(c2ccc(O)cc2)CC1c1ccccn1 (stereo not drawn) [Compound 7, 1-(3-(4-Hydroxyphenyl)-5-(pyridin-2-yl)-4,5-dihydro-1H-pyrazol-1-yl)ethanone] | potential antioxidant activity | 69 | 196
CC(=O)N1N=C(c2ccc(O)cc2)CC1c1ccco1 (stereo not drawn) [Compound 8, 1-(5-(Furan-2-yl)-3-(4-hydroxyphenyl)-4,5-dihydro-1H-pyrazol-1-yl)ethanone] | potential antioxidant activity | 106 | 1.07
CC(=O)N1N=C(c2ccc(O)cc2)CC1c1cccc([N+](=O)[O-])c1 (stereo not drawn) [Compound 9, 1-(3-(4-Hydroxyphenyl)-5-(3-nitrophenyl)-4,5-dihydro-1H-pyrazol-1-yl)ethanone] |  | 161 | 632
CC(=O)N1N=C(c2ccc(O)cc2)CC1c1ccc(N(C)C)cc1 (stereo not drawn) [Compound 10, 1-(5-(4-(Dimethylamino)phenyl)-3-(4-hydroxyphenyl)-4,5-dihydropyrazol-1-yl)ethanone] | potential antioxidant activity | 41.1 | 388
COc1ccc(C2CC(c3ccc(O)cc3)=NN2C(C)=O)cc1 (stereo not drawn) [Compound 11, 1-(3-(4-Hydroxyphenyl)-5-(4-methoxyphenyl)-4,5-dihydro-1H-pyrazol-1-yl)ethanone] | potential antioxidant activity | 53.5 | 0.551
CC(=O)N1N=C(c2ccc(O)cc2)CC1c1ccc(C)cc1 (stereo not drawn) [Compound 12, 1-(3-(4-Hydroxyphenyl)-5-(p-tolyl)-4,5-dihydro-1H-pyrazol-1-yl)ethanone] | potential antioxidant activity | 151 | 400
COc1ccc(C2CC(c3ccc(Cl)cc3)=NN2C(C)=O)cc1 (stereo not drawn) [Compound 13, 1-(3-(4-Chlorophenyl)-5-(4-methoxyphenyl)-4,5-dihydro-1H-pyrazol-1-yl)ethanone] | potential antioxidant activity | 131 | 
CC(=O)N1N=C(c2ccc(Cl)cc2)CC1c1ccc(C)cc1 (stereo not drawn) [Compound 14, 1-(3-(4-Chlorophenyl)-5-(p-tolyl)-4,5-dihydro-1H-pyrazol-1-yl)ethanone] |  | 179 | 
CC(=O)N1N=C(c2ccc(Cl)cc2)CC1c1cccs1 (stereo not drawn) [Compound 15, 1-(3-(4-Chlorophenyl)-5-(thiophen-2-yl)-4,5-dihydro-1H-pyrazol-1-yl)ethanone] |  | 383 | 425
COc1ccc(C2CC(c3ccc(Cl)cc3)=NN2C(C)=O)cc1O (stereo not drawn) [Compound 16, 1-(3-(4-Chlorophenyl)-5-(3-hydroxy-4-methoxyphenyl)-4,5-dihydropyrazol-1-yl)ethanone] |  | 56.3 | 62.5
CC(=O)N1N=C(c2ccc(Cl)cc2)CC1c1cccc(O)c1 (stereo not drawn) [Compound 17, 1-(3-(4-Chlorophenyl)-5-(3-hydroxyphenyl)-4,5-dihydropyrazol-1-yl)ethanone] |  | 160 | 315
CC(=O)N1N=C(c2ccc(Cl)cc2)CC1c1ccccn1 (stereo not drawn) [Compound 18, 1-(3-(4-Chlorophenyl)-5-(pyridin-2-yl)-4,5-dihydro-1H-pyrazol-1-yl)ethanone] |  | 199 | 281
CC(=O)N1N=C(c2ccc(Cl)cc2)CC1c1ccccc1 (stereo not drawn) [Compound 19, 1-(3-(4-Chlorophenyl)-5-phenyl-4,5-dihydro-1H-pyrazol-1-yl)ethanone] |  | 172 | 
CC(=O)N1N=C(c2ccc(Cl)cc2)CC1c1ccccc1O (stereo not drawn) [Compound 20, 1-(3-(4-Chlorophenyl)-5-(2-hydroxyphenyl)-4,5-dihydro-1H-pyrazol-1-yl)ethanone] | potential antioxidant activity | 99.6 | 590
CC(=O)N1N=C(c2ccc(Cl)cc2)CC1c1ccco1 (stereo not drawn) [Compound 21, 1-(3-(4-Chlorophenyl)-5-(furan-2-yl)-4,5-dihydro-1H-pyrazol-1-yl)ethanone] |  | 580 | 262
CC(=O)N1N=C(c2ccc(Cl)cc2)CC1c1cccc([N+](=O)[O-])c1 (stereo not drawn) [Compound 22, 1-(3-(4-Chlorophenyl)-5-(3-nitrophenyl)-4,5-dihydro-1H-pyrazol-1-yl)ethanone] |  | 220 | 61.5
